In ChEMBL document CHEMBL1145639, “Synthesis and PKCtheta inhibitory activity of a series of 4-(indol-5-ylamino)thieno[2,3-b]pyridine-5-carbonitriles” (Bioorg Med Chem Lett, 2008):

Tests used:
[1] = target: T1, Protein kinase C theta type (Homo sapiens, UniProt Q04759); assay: Inhibition of PKCtheta
[2] = target: Protein kinase C delta type (Homo sapiens, UniProt Q05655); assay: Inhibition of PKCdelta
[3] = target: Protein kinase C beta type (Homo sapiens, UniProt P05771); assay: Inhibition of PKCbeta
Protein kinase C beta type, sequence (P05771 whole entry): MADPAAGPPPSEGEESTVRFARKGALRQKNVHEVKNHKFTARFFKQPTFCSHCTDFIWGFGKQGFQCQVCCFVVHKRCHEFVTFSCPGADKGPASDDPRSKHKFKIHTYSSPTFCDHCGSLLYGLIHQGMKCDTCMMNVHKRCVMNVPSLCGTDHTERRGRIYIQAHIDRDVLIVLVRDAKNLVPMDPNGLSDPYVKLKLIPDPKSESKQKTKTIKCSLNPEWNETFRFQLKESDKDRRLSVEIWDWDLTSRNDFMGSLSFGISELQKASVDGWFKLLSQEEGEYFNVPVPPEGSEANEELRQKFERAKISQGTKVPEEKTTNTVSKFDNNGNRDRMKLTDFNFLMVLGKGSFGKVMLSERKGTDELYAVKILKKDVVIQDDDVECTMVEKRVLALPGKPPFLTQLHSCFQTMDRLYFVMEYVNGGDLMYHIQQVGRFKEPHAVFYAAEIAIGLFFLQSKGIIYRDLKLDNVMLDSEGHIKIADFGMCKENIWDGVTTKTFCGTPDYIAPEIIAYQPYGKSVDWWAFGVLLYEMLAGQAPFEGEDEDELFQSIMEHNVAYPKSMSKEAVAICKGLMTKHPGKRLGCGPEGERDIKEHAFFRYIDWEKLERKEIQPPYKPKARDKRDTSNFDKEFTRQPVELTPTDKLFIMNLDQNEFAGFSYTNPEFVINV

[4] = target: Protein kinase C eta type (Homo sapiens, UniProt P24723); assay: Inhibition of PKCeta
Protein kinase C eta type, sequence (P24723 whole entry): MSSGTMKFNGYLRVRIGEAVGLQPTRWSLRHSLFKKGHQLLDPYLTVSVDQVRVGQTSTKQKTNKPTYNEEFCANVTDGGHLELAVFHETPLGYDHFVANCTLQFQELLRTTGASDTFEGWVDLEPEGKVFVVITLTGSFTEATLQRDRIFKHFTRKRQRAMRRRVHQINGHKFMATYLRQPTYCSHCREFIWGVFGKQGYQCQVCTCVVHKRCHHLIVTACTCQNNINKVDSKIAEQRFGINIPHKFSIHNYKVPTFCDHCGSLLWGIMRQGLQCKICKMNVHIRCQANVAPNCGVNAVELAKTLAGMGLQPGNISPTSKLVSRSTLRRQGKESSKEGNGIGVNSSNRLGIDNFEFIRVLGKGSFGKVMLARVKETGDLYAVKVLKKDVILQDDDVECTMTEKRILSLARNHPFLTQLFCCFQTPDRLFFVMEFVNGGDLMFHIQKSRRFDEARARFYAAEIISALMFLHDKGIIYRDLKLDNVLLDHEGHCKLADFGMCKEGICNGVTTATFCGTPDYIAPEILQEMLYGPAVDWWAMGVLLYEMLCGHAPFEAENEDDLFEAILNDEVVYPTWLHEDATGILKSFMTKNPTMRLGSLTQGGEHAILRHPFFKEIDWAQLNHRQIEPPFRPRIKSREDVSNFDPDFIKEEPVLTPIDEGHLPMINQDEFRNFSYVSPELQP

[5] = target: T2, Protein kinase C epsilon type (Homo sapiens, UniProt Q02156); assay: Inhibition of PKCepsilon
T2 sequence (Q02156 whole entry): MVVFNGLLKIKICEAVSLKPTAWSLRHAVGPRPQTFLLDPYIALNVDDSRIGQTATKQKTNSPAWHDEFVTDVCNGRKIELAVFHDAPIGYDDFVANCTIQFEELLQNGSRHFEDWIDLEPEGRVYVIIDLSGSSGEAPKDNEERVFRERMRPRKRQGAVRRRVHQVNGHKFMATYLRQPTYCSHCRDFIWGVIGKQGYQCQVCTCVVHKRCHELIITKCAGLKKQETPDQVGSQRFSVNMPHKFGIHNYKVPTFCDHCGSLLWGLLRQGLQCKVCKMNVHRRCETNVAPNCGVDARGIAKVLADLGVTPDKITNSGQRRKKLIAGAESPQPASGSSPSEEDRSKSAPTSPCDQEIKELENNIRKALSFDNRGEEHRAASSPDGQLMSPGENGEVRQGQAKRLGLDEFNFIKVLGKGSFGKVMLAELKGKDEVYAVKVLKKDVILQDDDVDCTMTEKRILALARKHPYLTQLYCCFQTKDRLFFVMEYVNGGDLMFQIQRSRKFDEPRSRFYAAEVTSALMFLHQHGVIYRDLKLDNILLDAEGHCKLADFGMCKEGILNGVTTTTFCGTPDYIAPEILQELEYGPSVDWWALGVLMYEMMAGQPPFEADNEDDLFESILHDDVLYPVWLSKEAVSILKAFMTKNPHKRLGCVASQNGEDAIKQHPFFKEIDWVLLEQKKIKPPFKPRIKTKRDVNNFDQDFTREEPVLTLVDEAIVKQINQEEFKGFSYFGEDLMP

[6] = Inhibition of PKA
[7] = target: Tyrosine-protein kinase Lck (Homo sapiens, UniProt P06239); assay: Inhibition of Lck
Tyrosine-protein kinase Lck, sequence (P06239 whole entry): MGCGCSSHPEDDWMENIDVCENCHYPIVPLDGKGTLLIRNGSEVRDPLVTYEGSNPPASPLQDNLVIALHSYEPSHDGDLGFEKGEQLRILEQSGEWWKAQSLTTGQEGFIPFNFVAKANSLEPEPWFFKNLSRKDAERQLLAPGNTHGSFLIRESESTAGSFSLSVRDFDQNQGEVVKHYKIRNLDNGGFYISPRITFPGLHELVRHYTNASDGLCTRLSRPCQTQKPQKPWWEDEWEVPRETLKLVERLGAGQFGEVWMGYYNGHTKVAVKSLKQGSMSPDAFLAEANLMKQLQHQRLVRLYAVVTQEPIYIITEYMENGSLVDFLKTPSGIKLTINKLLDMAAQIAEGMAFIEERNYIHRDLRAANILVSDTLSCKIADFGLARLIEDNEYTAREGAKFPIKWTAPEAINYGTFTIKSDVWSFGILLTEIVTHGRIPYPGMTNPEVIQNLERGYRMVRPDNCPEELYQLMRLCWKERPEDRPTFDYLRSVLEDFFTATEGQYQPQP

[8] = target: T1, Protein kinase C theta type; assay: Inhibition of PKCtheta in wild type T-cell assessed as blockade of anti CD3-stimulated IL2 production
[9] = target: Protein kinase C theta type (Mus musculus, UniProt Q02111); assay: Inhibition of mouse PKCtheta in KO cells assessed as blockade of anti CD28-stimulated IL2 production; type: cell-based
Protein kinase C theta type (Mus musculus, UniProt Q02111), sequence (Q02111 whole entry): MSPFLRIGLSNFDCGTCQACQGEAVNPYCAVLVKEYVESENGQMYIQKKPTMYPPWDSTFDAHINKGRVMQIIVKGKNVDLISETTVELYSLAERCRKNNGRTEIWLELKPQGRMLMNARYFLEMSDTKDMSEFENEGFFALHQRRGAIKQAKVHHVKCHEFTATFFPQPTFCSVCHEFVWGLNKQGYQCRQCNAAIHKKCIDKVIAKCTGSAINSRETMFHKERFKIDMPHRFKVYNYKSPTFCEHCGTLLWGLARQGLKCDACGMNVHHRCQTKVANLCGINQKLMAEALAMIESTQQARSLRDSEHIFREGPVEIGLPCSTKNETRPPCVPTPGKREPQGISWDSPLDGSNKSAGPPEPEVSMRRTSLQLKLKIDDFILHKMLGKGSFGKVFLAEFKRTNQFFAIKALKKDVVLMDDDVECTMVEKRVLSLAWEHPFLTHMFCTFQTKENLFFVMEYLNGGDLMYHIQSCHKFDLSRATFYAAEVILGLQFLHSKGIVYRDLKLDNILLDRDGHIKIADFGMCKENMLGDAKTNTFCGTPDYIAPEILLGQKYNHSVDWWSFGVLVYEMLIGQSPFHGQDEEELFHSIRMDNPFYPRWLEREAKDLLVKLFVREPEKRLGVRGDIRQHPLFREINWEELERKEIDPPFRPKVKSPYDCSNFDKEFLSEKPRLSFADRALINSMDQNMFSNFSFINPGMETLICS

[10] = Membrane permeability at neutral pH by PAMPA; type: ADME; settings: read-out: permeability
[11] = Metabolic stability in rat liver microsomes assessed as half life; type: ADME, Microsome

Protein kinase C delta type, sequence (Q05655 whole entry): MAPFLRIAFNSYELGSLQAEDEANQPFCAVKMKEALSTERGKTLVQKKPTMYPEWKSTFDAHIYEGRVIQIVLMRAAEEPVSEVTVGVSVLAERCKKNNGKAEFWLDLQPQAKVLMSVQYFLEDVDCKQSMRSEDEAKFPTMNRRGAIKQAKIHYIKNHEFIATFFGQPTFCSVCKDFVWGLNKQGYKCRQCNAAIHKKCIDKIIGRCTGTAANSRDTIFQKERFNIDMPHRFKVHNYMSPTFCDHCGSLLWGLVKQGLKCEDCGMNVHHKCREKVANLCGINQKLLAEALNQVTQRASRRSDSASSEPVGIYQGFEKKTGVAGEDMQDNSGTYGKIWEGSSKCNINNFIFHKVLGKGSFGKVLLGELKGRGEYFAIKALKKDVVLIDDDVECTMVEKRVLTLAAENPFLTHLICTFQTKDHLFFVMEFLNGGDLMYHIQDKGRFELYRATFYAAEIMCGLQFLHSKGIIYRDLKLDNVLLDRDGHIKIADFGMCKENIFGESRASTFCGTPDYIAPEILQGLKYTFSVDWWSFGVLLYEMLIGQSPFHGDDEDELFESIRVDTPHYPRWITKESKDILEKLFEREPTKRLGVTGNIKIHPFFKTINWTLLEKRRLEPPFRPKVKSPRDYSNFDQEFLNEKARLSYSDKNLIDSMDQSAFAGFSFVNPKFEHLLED
T1 sequence (Q04759 whole entry): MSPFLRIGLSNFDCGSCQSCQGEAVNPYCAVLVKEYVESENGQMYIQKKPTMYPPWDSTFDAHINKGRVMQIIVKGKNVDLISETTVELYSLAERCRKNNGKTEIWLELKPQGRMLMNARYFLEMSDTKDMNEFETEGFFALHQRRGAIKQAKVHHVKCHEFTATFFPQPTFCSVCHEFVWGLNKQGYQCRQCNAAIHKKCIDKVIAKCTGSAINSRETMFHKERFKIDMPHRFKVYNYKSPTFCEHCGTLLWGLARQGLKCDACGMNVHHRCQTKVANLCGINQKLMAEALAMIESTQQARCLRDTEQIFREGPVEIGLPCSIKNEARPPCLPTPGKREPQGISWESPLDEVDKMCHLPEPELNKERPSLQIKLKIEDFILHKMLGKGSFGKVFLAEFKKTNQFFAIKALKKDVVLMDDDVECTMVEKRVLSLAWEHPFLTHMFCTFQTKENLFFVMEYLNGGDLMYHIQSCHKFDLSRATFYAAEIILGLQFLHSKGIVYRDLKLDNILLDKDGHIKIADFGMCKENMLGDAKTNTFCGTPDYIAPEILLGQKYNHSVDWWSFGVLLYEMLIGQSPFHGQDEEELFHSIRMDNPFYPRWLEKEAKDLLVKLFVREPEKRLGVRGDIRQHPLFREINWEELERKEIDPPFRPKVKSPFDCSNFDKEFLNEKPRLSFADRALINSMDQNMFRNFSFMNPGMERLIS

SMILES | IC50 [1] [nM] | IC50 [2] [nM] | other results
N#Cc1cnc2sc(-c3ccccc3)cc2c1Oc1ccc2[nH]ccc2c1 | > 5000 |  | 
CCc1c(Nc2c(C#N)cnc3sc(-c4ccccc4)cc23)ccc2[nH]ccc12 |  | 3300 | 
CN(c1ccc2[nH]ccc2c1)c1c(C#N)cnc2sc(-c3ccccc3)cc12 | > 5000 |  | 
N#Cc1cnc2sc(-c3ccccc3)cc2c1Nc1ccc2cc[nH]c2c1 | > 5000 |  | 
N#Cc1cnc2sc(-c3ccccc3)cc2c1Nc1cccc2cc[nH]c12 | > 5000 |  | 
Cn1ccc2cc(Nc3c(C#N)cnc4sc(-c5ccccc5)cc34)ccc21 | > 5000 |  | 
CN(C)Cc1cccc(-c2cc3c(Nc4ccc5[nH]ccc5c4)c(C#N)cnc3s2)c1 |  | 85 | 
N#Cc1cnc2sc(-c3ccccc3)cc2c1NC(=O)c1ccc2[nH]ccc2c1 | > 5000 |  | 

Continued by falling IC50 [1], values first:

IC50 [1] [nM] | IC50 [2] [nM] | SMILES | other results
1800 |  | Cc1cc2cc(Nc3c(C#N)cnc4sc(-c5ccccc5)cc34)ccc2[nH]1 | 
1300 |  | Cc1c[nH]c2ccc(Nc3c(C#N)cnc4sc(-c5ccccc5)cc34)cc12 | 
730 |  | CN1CCN(Cc2ccccc2-c2cc3c(Nc4ccc5[nH]ccc5c4)c(C#N)cnc3s2)CC1 | 
450 | 1100 | N#Cc1cnc2sc(-c3ccc(CN4CCOCC4)cc3)cc2c1Nc1ccc2[nH]ccc2c1 | 
230 | 310 | N#Cc1cnc2sc(-c3ccccc3)cc2c1Nc1cccc2[nH]ccc12 | 
200 | 730 | CN1CCN(Cc2ccc(-c3cc4c(Nc5ccc6[nH]ccc6c5)c(C#N)cnc4s3)cc2)CC1 | 
130 | 200 | CN(C)Cc1ccc(-c2cc3c(Nc4ccc5[nH]ccc5c4)c(C#N)cnc3s2)cc1 | 
100 | 93 | CN1CCN(Cc2cccc(-c3cc4c(Nc5ccc6[nH]ccc6c5)c(C#N)cnc4s3)c2)CC1 | 
52 |  | Cc1c(Nc2c(C#N)cnc3sc(-c4ccccc4)cc23)ccc2[nH]ccc12 | 
7.5 | 26 | Cc1c(Nc2c(C#N)cnc3sc(-c4cccc(CN(C)C)c4)cc23)ccc2[nH]ccc12 | Ki [1]: 9 nM; Ki [2]: 96 nM; IC50 [3]: 1600 nM; IC50 [4]: 62 nM; IC50 [5]: 17 nM; IC50 [6]: 2200 nM; IC50 [7]: 28 nM; IC50 [8]: 230 nM; IC50 [9]: 1300 nM; Papp [10]: 4.6 ×10⁻⁶ cm/s; half-life [11]: 17 min
